According to ChEMBL document CHEMBL1201862, “PubChem BioAssay data set” (2004):
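Tested at 5 concentrations; 48 h exposure; 96-well plates; endpoints linearly interpolated, else capped at highest concentration. GI50 is the concentration that inhibits growth by half.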 Calls of active or inactive are those of the source. Rule as the data show it: active = GI50 up to about 1.1 µM and inactive = higher.

Experiments:
Test in all cases: growth of human tumour cells (NCI), 48 h
IGROV-1 = test system: IGROV-1
HCC 2998 = test system: HCC 2998
ACHN = test system: ACHN
SNB-19 = test system: SNB-19
SW-620 = test system: SW-620
SF-268 = test system: SF-268
OVCAR-3 = test system: OVCAR-3
OVCAR-4 = test system: OVCAR-4
RPMI-8226 = test system: RPMI-8226
SF-539 = test system: SF-539
SK-MEL-28 = test system: SK-MEL-28
TK-10 = test system: TK-10
SF-295 = test system: SF-295
SK-OV-3 = test system: SK-OV-3
KM12 = test system: KM12
NCI-H522 = test system: NCI-H522
SNB-75 = test system: SNB-75
A549 = test system: A549

Measured: GI50

Nn1c(-c2cccc(Cl)c2)nc2ccccc2c1=O
inactive: IGROV-1 > 100 µM | HCC 2998 > 100 µM | ACHN > 100 µM | SNB-19 > 100 µM | SW-620 > 100 µM | SF-268 > 100 µM | OVCAR-3 > 100 µM | OVCAR-4 > 100 µM | RPMI-8226 > 100 µM | SF-539 > 100 µM | SK-MEL-28 > 100 µM | TK-10 > 100 µM | SF-295 > 100 µM | SK-OV-3 > 100 µM | KM12 > 100 µM | NCI-H522 > 100 µM | SNB-75 > 100 µM | A549 > 100 µM

COC(=O)C1=NC(=S)NC(c2ccccc2)C1c1nc2ccccc2s1 (configuration not stated)
inactive: IGROV-1 > 100 µM | HCC 2998 > 100 µM | ACHN > 100 µM | SNB-19 > 100 µM | SW-620 > 100 µM | SF-268 > 100 µM | OVCAR-3 > 100 µM | OVCAR-4 > 100 µM | SF-539 67.8 µM | SK-MEL-28 > 100 µM | TK-10 > 100 µM | SF-295 > 100 µM | SK-OV-3 > 100 µM | KM12 > 100 µM | SNB-75 55.3 µM | A549 > 100 µM

N#CC(C#N)=C1NC(=O)C(c2ccccc2)C(=O)N1 (configuration not stated)
inactive: IGROV-1 > 100 µM | HCC 2998 > 100 µM | SNB-19 > 100 µM | SW-620 > 100 µM | SF-268 > 100 µM | OVCAR-3 > 100 µM | OVCAR-4 > 100 µM | RPMI-8226 > 100 µM | SF-539 > 100 µM | TK-10 > 100 µM | SF-295 > 100 µM | SK-OV-3 > 100 µM | KM12 > 100 µM | NCI-H522 > 100 µM | SNB-75 > 100 µM | A549 > 100 µM

O=C(NCCCCCCNC(=O)OCCSCCn1cc(C(=O)NC(=O)OCc2ccccc2)c(=O)[nH]c1=O)OCCSCCn1cc(C(=O)NC(=O)OCc2ccccc2)c(=O)[nH]c1=O
inactive: IGROV-1 > 100 µM | HCC 2998 > 100 µM | ACHN > 100 µM | SNB-19 > 100 µM | SW-620 > 100 µM | OVCAR-3 > 100 µM | OVCAR-4 > 100 µM | RPMI-8226 > 100 µM | TK-10 > 100 µM | SF-295 > 100 µM | KM12 > 100 µM | NCI-H522 > 100 µM | A549 > 100 µM

COCCOCOC(C)(C)[C@H](CCOC(C)=O)O[Si](c1ccccc1)(c1ccccc1)C(C)(C)C
inactive: IGROV-1 23.6 µM | HCC 2998 9.1 µM | ACHN 15.2 µM | SNB-19 49 µM | SW-620 28.1 µM | SF-268 34.6 µM | OVCAR-3 11 µM | OVCAR-4 15 µM | RPMI-8226 3.96 µM | SK-MEL-28 56.5 µM | TK-10 22.8 µM | SF-295 16 µM | SK-OV-3 35.4 µM | KM12 15.4 µM | NCI-H522 5.52 µM | SNB-75 38.7 µM | A549 21.1 µM

COc1ccc(NC(=O)CC/C(CC(=O)c2ccco2)=N/NC(N)=S)cc1
inactive: IGROV-1 > 100 µM | HCC 2998 > 100 µM | ACHN > 100 µM | SNB-19 > 100 µM | SW-620 > 100 µM | SF-268 > 100 µM | OVCAR-3 > 100 µM | OVCAR-4 > 100 µM | RPMI-8226 > 100 µM | SF-539 > 100 µM | TK-10 > 100 µM | SF-295 > 100 µM | SK-OV-3 > 100 µM | KM12 > 100 µM | NCI-H522 > 100 µM | A549 > 100 µM

CC1=C2[C@@H](c3ccccc3)C3C=CC2(c2ccccc23)N(C(=O)Nc2cccc3ccccc23)C1=O (some centres not stated)
inactive: IGROV-1 > 100 µM | HCC 2998 > 100 µM | ACHN > 100 µM | SNB-19 > 100 µM | SW-620 > 100 µM | SF-268 > 100 µM | OVCAR-3 > 100 µM | OVCAR-4 > 100 µM | RPMI-8226 > 100 µM | SF-539 > 100 µM | SK-MEL-28 > 100 µM | SF-295 > 100 µM | SK-OV-3 > 100 µM | KM12 > 100 µM | A549 > 100 µM

O=C1NCC2=C1CCC1c3ccccc3CCN21 (configuration not stated)
inactive: IGROV-1 > 100 µM | HCC 2998 > 100 µM | ACHN > 100 µM | SNB-19 > 100 µM | SW-620 > 100 µM | SF-268 > 100 µM | OVCAR-3 > 100 µM | SF-539 > 100 µM | SK-MEL-28 > 100 µM | TK-10 > 100 µM | SF-295 > 100 µM | SK-OV-3 > 100 µM | KM12 > 100 µM | NCI-H522 > 100 µM | SNB-75 > 100 µM | A549 > 100 µM
